Data as given in publication PMC6391970, “Design, Synthesis and Characterization of Covalent KDM5 Inhibitors” (Angewandte Chemie (International Ed. in English), 2018).

Tests used:
Caco-2 permeability = type: in vitro ADME; settings: human, Caco-2, Caco‐2 cells, A to B
KDM4B = target: T1, KDM4B (Homo sapiens, UniProt O94953); assay: KDM AlphaScreen selectivity panel, KDM4B; type: biochemical; settings: for IC50: AlphaScreen after 120 min pre-incubation, read-out: KDM IC50 4B; for SI over KDM5B, 4B: KDM4B IC50/KDM5B IC50
T1 sequence (O94953 1-1096): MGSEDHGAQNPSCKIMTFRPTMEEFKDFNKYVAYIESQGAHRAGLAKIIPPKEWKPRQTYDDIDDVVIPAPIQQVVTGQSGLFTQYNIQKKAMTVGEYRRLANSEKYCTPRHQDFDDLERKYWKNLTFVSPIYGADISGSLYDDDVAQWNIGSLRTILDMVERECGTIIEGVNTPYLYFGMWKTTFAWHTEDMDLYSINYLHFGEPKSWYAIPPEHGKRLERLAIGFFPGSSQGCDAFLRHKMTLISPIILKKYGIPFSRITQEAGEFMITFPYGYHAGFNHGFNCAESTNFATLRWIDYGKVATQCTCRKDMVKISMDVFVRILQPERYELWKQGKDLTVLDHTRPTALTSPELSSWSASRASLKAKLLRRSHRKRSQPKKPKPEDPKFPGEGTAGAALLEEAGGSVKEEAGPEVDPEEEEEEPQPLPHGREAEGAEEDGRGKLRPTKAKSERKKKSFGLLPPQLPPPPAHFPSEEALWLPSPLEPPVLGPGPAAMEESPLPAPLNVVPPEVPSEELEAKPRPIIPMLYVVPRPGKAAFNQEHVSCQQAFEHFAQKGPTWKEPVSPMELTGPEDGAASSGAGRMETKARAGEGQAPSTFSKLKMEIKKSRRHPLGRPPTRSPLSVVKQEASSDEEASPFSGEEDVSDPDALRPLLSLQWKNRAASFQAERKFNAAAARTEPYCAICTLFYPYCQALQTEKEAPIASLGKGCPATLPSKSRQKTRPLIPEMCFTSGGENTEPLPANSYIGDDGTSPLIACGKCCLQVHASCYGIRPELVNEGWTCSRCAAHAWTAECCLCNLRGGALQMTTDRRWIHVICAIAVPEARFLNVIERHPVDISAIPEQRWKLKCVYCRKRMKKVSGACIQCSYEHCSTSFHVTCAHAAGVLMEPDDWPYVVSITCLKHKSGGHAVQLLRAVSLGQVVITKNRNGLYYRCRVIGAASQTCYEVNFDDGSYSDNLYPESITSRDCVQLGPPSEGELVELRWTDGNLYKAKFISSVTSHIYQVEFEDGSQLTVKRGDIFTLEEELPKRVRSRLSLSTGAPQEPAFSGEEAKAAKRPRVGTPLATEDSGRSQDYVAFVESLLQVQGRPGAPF
Experimental: A panel of JmjC KDMs was tested by AlphaScreen to determine the selectivity of the compounds (Table S2). […]
KDM alpha screen selectivity
Inhibition of histone demethylases was assessed using the histone demethylase AlphaScreen assay (Amplified Luminescence Proximity Homogenous Assay) as previously reported.[4] The basis of this assay for lysine demethylases have been widely described.[5] In brief, the assay was performed in 384-well plate format using white proxiplates (PerkinElmer), and transfer of titrations of compounds (100 nl) was performed using an ECHO 550 acoustic dispenser […]
Tween- 20) containing the appropriate demethylase enzyme (see Supplementary table 1 for final concentrations) was transferred to each well of a 384-well proxiplate with a Multidrop™ Combi Reagent Dispenser, and the enzymes allowed to pre-incubate for 120 minutes with compound (final concentration of DMSO was 1%). After that time, the enzyme reaction was initiated by addition of 5 µl of a substrate mix consisting of Ketoglutarate (2-OG), Ferrous Ammonium Sulphate (FAS), L-Ascorbic Acid (LAA) and biotinylated peptide substrate (see Supporting table X for final assay concentrations) and the reaction incubated for the indicated time at room temperature. Reaction was stopped by the addition of 5 μl of assay buffer containing EDTA (7.5 mM) and NaCl (400 mM). Streptavidin Donor beads (0.08 mg/ml) and Protein-A conjugated acceptor beads (0.08 mg/ml) (AlphaScreen General IgG detection kit was from Perkin Elmer) were pre-incubated for 1 hour with an antibody to the product methyl mark (Supplementary Table 1) and the presence of biotin-H3-product was detected by addition of 5 µl of the pre-incubated AlphaScreen beads (final concentrations of 0.02 mg/ml with respect to acceptor and donor beads). Detection was allowed to proceed for 2 hour at room temperature and the assay plates read in a BMG Labtech Pherastar FS plate reader (excitation, 680 nm; emission, 570 […]
IC50(t) = Ki (1 + K ) . ( η . k .t − 1) (1) […]
Table S4. AlphaScreen assay conditions for the KDM selectivity panel

Row | SMILES | Papp A→B (Caco-2 permeability) [×10⁻⁶ cm/s] | selectivity over KDM4B (KDM4B) | IC50 (KDM4B) [µM] | SI over KDM5B, 4B (KDM4B)
1 | C=CC(=O)N1CCC(n2cc(-c3[nH]c4c(C#N)cnn4c(=O)c3C(C)C)cn2)CC1 [Compound 10] | < 0.76 | > 500 fold | 14.2 ± 1.1 | 831
2 | C=CC(=O)Nc1cccc(CN(C)CCc2cnn(-c3nccc4c(=O)[nH]cnc34)c2)c1 [Compound 4] | < 1.5 | – | 1.1 ± 0.1 | –
3 | CC(C)c1c(-c2cnn(CCNC(=O)CCl)c2)[nH]c2c(C#N)cnn2c1=O [Compound 7] | < 0.76 | > 500 fold | 4.1 ± 0.2 | 572
4 | C=CC(=O)NCCOc1ccc(-c2[nH]c3c(C#N)cnn3c(=O)c2C(C)C)cc1 [Compound 9] | < 0.76 | – | 6.3 ± 0.6 | 97
5 | CN(C)C/C=C/C(=O)Nc1cccc(CN(C)CCc2cnn(-c3nccc4c(=O)[nH]cnc34)c2)c1 [Compound 6] | < 1.5 | – | 1.9 ± 0.1 | –
6 | CN(CCc1cnn(-c2nccc3c(=O)[nH]cnc23)c1)Cc1cccc(NC(=O)CCl)c1 [Compound 5] | < 1.5 | more than 60 fold | 0.7 ± 0.2 | 68
7 | CC(C)c1c(-c2cnn(C3CCN(C(=O)CCl)CC3)c2)[nH]c2c(C#N)cnn2c1=O [Compound 11] | < 1.4 | – | 4.6 ± 0.1 | 513
